Experimental data as given in PubChem BioAssay AID328 (DTP/NCI, 2004).
Where “and” joins values, the source holds several entries; their conditions need not be identical. Identical values can stand only once. Toxic doses and inconclusive results are not listed.

Test system: BDF1 mice, P388 leukemia ip, median survival T/C
Assay: NCI In Vivo Anticancer Drug Screen. Data for tumor model P388 Leukemia (intraperitoneal) in B6D2F1 (BDF1) mice
Conditions: endpoint: median survival time, higher = longer survival
Summary of the method: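 Vehicle-dosed animals serve as the reference; survival of compound-dosed, tumour-implanted mice is divided by it.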

For CC(C)[C@](O)(C(=O)OCC1=CC[N+]2([O-])CC[C@@H](O)[C@@H]12)[C@H](C)O (stereo partly drawn), the T/C (dose: 6.2 mg/kg/injection, schedule: Q01DX009 (ip), vehicle: water) was 113 % of control, the T/C (dose: 8.0 mg/kg/injection, schedule: Q03HX024 (ip), vehicle: water) was 100 % of control and the T/C (dose: 16.0 mg/kg/injection, schedule: Q03HX008 (ip), vehicle: saline) was 100 % of control. For the same compound, the T/C (dose: 16.0 mg/kg/injection, schedule: Q03HX008 (ip), vehicle: water) was 95 % of control, the T/C (dose: 16.0 mg/kg/injection, schedule: Q03HX016 (ip), vehicle: saline) was 90 % of control and the T/C (dose: 16.0 mg/kg/injection, schedule: Q03HX016 (ip), vehicle: water) was 100 % of control. The T/C (dose: 16.0 mg/kg/injection, schedule: Q03HX024 (ip), vehicle: saline) was 90 % of control, the T/C (dose: 16.0 mg/kg/injection, schedule: Q03HX024 (ip), vehicle: water) was 90 % of control and the T/C (dose: 25.0 mg/kg/injection, schedule: Q01DX009 (ip), vehicle: saline) was 110 % of control. For the same compound, the T/C (dose: 25.0 mg/kg/injection, schedule: Q01DX009 (ip), vehicle: water) was 118 % of control, the T/C (dose: 32.0 mg/kg/injection, schedule: Q03HX008 (ip), vehicle: saline) was 105 % of control and the T/C (dose: 32.0 mg/kg/injection, schedule: Q03HX008 (ip), vehicle: water) was 100 % of control. For the same compound, the T/C (dose: 32.0 mg/kg/injection, schedule: Q03HX016 (ip), vehicle: saline) was 100 % of control, the T/C (dose: 32.0 mg/kg/injection, schedule: Q03HX016 (ip), vehicle: water) was 100 % of control and the T/C (dose: 32.0 mg/kg/injection, schedule: Q03HX024 (ip), vehicle: saline) was 100 % of control. For the same compound, the T/C (dose: 32.0 mg/kg/injection, schedule: Q03HX024 (ip), vehicle: water) was 100 % of control, the T/C (dose: 64.0 mg/kg/injection, schedule: Q01DX009 (ip), vehicle: saline) was 105 % of control and the T/C (dose: 64.0 mg/kg/injection, schedule: Q03HX008 (ip), vehicle: saline) was 100 % of control. For the same compound, the T/C (dose: 64.0 mg/kg/injection, schedule: Q03HX008 (ip), vehicle: water) was 100 % of control, the T/C (dose: 64.0 mg/kg/injection, schedule: Q03HX016 (ip), vehicle: saline) was 105 % of control and the T/C (dose: 64.0 mg/kg/injection, schedule: Q03HX016 (ip), vehicle: water) was 100 % of control. For the same compound, the T/C (dose: 64.0 mg/kg/injection, schedule: Q03HX024 (ip), vehicle: saline) was 105 % of control, the T/C (dose: 64.0 mg/kg/injection, schedule: Q03HX024 (ip), vehicle: water) was 95 % of control and the T/C (dose: 64.0 mg/kg/injection, schedule: Q04DX003 (ip), vehicle: water) was 100 % of control. The T/C (dose: 100.0 mg/kg/injection, schedule: Q04DX002 (ip), vehicle: saline) was 108 % of control, the T/C (dose: 128.0 mg/kg/injection, schedule: Q01DX001 (ip), vehicle: saline) was 95 % of control and the T/C (dose: 128.0 mg/kg/injection, schedule: Q01DX009 (ip), vehicle: saline) was 89 % of control. The T/C (dose: 128.0 mg/kg/injection, schedule: Q01DX009 (sc), vehicle: water) was 95 % of control, the T/C (dose: 128.0 mg/kg/injection, schedule: Q03HX008 (ip), vehicle: saline) was 95 % of control and the T/C (dose: 128.0 mg/kg/injection, schedule: Q03HX016 (ip), vehicle: saline) was 100 % of control. For the same compound, the T/C (dose: 128.0 mg/kg/injection, schedule: Q03HX016 (ip), vehicle: water) was 100 % of control, the T/C (dose: 128.0 mg/kg/injection, schedule: Q03HX024 (ip), vehicle: saline) was 105 % of control and the T/C (dose: 128.0 mg/kg/injection, schedule: Q03HX024 (ip), vehicle: water) was 100 % of control. For the same compound, the T/C (dose: 128.0 mg/kg/injection, schedule: Q04DX003 (ip), vehicle: saline) was 95 % of control, the T/C (dose: 128.0 mg/kg/injection, schedule: Q04DX003 (ip), vehicle: water) was 100 % of control and the T/C (dose: 128.0 mg/kg/injection, schedule: Q08DX002 (ip), vehicle: saline) was 90 % of control. The T/C (dose: 200.0 mg/kg/injection, schedule: Q01DX001 (ip), vehicle: saline) was 95 % of control, the T/C (dose: 200.0 mg/kg/injection, schedule: Q01DX009 (ip), vehicle: other) was 157 % of control and the T/C (dose: 200.0 mg/kg/injection, schedule: Q04DX002 (ip), vehicle: saline) was 100 % of control. For the same compound, the T/C (dose: 250.0 mg/kg/injection, schedule: Q04DX003 (ip), vehicle: water) was 154 % of control, the T/C (dose: 256.0 mg/kg/injection, schedule: Q01DX001 (ip), vehicle: saline) was 90 % of control and the T/C (dose: 256.0 mg/kg/injection, schedule: Q01DX001 (ip), vehicle: water) was 118 % of control. For the same compound, the T/C (dose: 256.0 mg/kg/injection, schedule: Q01DX009 (ip), vehicle: saline) was 96 % of control, the T/C (dose: 256.0 mg/kg/injection, schedule: Q01DX009 (ip), vehicle: water) was 154 % of control and the T/C (dose: 256.0 mg/kg/injection, schedule: Q01DX009 (oral), vehicle: water) was 90 % of control. The T/C (dose: 256.0 mg/kg/injection, schedule: Q01DX009 (sc), vehicle: water) was 100 % of control, the T/C (dose: 256.0 mg/kg/injection, schedule: Q03HX008 (ip), vehicle: saline) was 120 % of control and the T/C (dose: 256.0 mg/kg/injection, schedule: Q03HX016 (ip), vehicle: saline) was 105 % of control. The T/C (dose: 256.0 mg/kg/injection, schedule: Q03HX024 (ip), vehicle: saline) was 95 % of control, the T/C (dose: 256.0 mg/kg/injection, schedule: Q04DX003 (ip), vehicle: saline) was 100 % of control and the T/C (dose: 256.0 mg/kg/injection, schedule: Q04DX003 (ip), vehicle: water) was 104 % of control. The T/C (dose: 288.0 mg/kg/injection, schedule: Q01DX009 (ip), vehicle: water) was 159 % of control, the T/C (dose: 360.0 mg/kg/injection, schedule: Q01DX009 (ip), vehicle: water) was 175 % of control and the T/C (dose: 400.0 mg/kg/injection, schedule: Q01DX009 (ip), vehicle: other) was 105 % of control. For the same compound, the T/C (dose: 500.0 mg/kg/injection, schedule: Q01DX001 (ip), vehicle: water) was 154 % of control, the T/C (dose: 500.0 mg/kg/injection, schedule: Q04DX003 (ip), vehicle: water) was 172 % of control and the T/C (dose: 500.0 mg/kg/injection, schedule: Q08DX002 (ip), vehicle: water) was 163 % of control. For the same compound, the T/C (dose: 512.0 mg/kg/injection, schedule: Q01DX001 (ip), vehicle: saline) was 100 % of control, the T/C (dose: 512.0 mg/kg/injection, schedule: Q01DX001 (ip), vehicle: water) was 118 % of control and the T/C (dose: 512.0 mg/kg/injection, schedule: Q01DX009 (ip), vehicle: saline) was 100 % of control. For the same compound, the T/C (dose: 512.0 mg/kg/injection, schedule: Q01DX009 (ip), vehicle: water) was 172 % of control, the T/C (dose: 512.0 mg/kg/injection, schedule: Q01DX009 (oral), vehicle: water) was 95 % of control and the T/C (dose: 512.0 mg/kg/injection, schedule: Q01DX009 (sc), vehicle: water) was 90 % of control. For the same compound, the T/C (dose: 512.0 mg/kg/injection, schedule: Q04DX003 (ip), vehicle: saline) was 90 % of control, the T/C (dose: 512.0 mg/kg/injection, schedule: Q04DX003 (ip), vehicle: water) was 100 % of control and the T/C (dose: 600.0 mg/kg/injection, schedule: Q01DX009 (ip), vehicle: water) was 163 % of control and 169 % of control. The T/C (dose: 750.0 mg/kg/injection, schedule: Q01DX005 (ip), vehicle: water) was 100 % of control, the T/C (dose: 800.0 mg/kg/injection, schedule: Q01DX001 (ip), vehicle: saline) was 108 % of control and the T/C (dose: 800.0 mg/kg/injection, schedule: Q01DX009 (ip), vehicle: other) was 99 % of control. For the same compound, the T/C (dose: 1000.0 mg/kg/injection, schedule: Q01DX001 (ip), vehicle: water) was 154 % of control, the T/C (dose: 1000.0 mg/kg/injection, schedule: Q04DX003 (ip), vehicle: water) was 195 % of control and the T/C (dose: 1000.0 mg/kg/injection, schedule: Q08DX002 (ip), vehicle: water) was 177 % of control. For the same compound, the T/C (dose: 1024.0 mg/kg/injection, schedule: Q01DX001 (ip), vehicle: saline) was 100 % of control, the T/C (dose: 1024.0 mg/kg/injection, schedule: Q01DX001 (ip), vehicle: water) was 95 % of control and the T/C (dose: 1024.0 mg/kg/injection, schedule: Q01DX009 (ip), vehicle: saline) was 160 % of control. The T/C (dose: 1024.0 mg/kg/injection, schedule: Q01DX009 (oral), vehicle: water) was 90 % of control, the T/C (dose: 1024.0 mg/kg/injection, schedule: Q01DX009 (sc), vehicle: water) was 90 % of control and the T/C (dose: 1024.0 mg/kg/injection, schedule: Q04DX003 (ip), vehicle: saline) was 110 % of control. For the same compound, the T/C (dose: 1024.0 mg/kg/injection, schedule: Q04DX003 (ip), vehicle: water) was 100 % of control, the T/C (dose: 1024.0 mg/kg/injection, schedule: Q08DX002 (ip), vehicle: saline) was 100 % of control and the T/C (dose: 1024.0 mg/kg/injection, schedule: Q08DX002 (ip), vehicle: water) was 95 % of control. For the same compound, the T/C (dose: 1500.0 mg/kg/injection, schedule: Q01DX001 (ip), vehicle: water) was 163 % of control, the T/C (dose: 1500.0 mg/kg/injection, schedule: Q08DX002 (ip), vehicle: water) was 181 % of control and the T/C (dose: 2048.0 mg/kg/injection, schedule: Q01DX001 (ip), vehicle: saline) was 120 % of control. For the same compound, the T/C (dose: 2048.0 mg/kg/injection, schedule: Q01DX001 (ip), vehicle: water) was 113 % of control, the T/C (dose: 2048.0 mg/kg/injection, schedule: Q01DX009 (oral), vehicle: water) was 90 % of control and the T/C (dose: 2048.0 mg/kg/injection, schedule: Q08DX002 (ip), vehicle: saline) was 105 % of control. The T/C (dose: 2048.0 mg/kg/injection, schedule: Q08DX002 (ip), vehicle: water) was 118 % of control.
